The test system of one assay is RXRα−/−/RARγ−/− F9 cells. Nature of the assay: Proliferation of F9 cells in monolayer culture (cell counting, [3H]thymidine incorporation, cell cycle FACS). Conditions: 6 d. The class given is cell-based, murine. In general terms: Incorporation of labelled thymidine or its analogues reports DNA synthesis.
The subject of assay [1] is RXRα−/− F9 cells. The description is as above. The class given is cell-based, murine. The settings on record: 6 d.
Assay [2] relates to RXRα−/−/RARα−/− F9 cells. Described as above. The class given is cell-based, murine. Conditions: 6 d.
Assay [3] concerns RARγ−/− F9 cells. Nature of the assay: Apoptosis of F9 cells (Hoechst 33258 staining, FACS). The class given is cell-based, murine. The settings on record: 6 d. As for the experimental part:
(§1) Apoptosis was analyzed by both Hoechst staining of nuclei and FACS® analysis, as previously described (Clifford, J., et al., EMBO J. 15:4142-4155 (1996)).

For assay [4], the system named is WT F9 cells. The assay is described as above. The class given is cell-based, murine. Conditions: 6 d. As for the experimental part: as §1
The test system of assay [5] is RARγ−/− F9 cells. Nature of the assay: Morphological differentiation of F9 cell aggregates into visceral endoderm (VE)-like cells (morphology, RT-PCR of markers). The class given is cell-based, murine. Further details: key to proportion of outer layer of cells displaying VE morphology: +++: more than 80%; ++: 50-80%; +: 10-50%; ±: not more than 10%; (−): no visible effect. Conditions: RARγ−/−, 10 d. The procedure:
(§2) F9 cells were cultured and induced to differentiate into primitive, parietal and visceral endoderm-like cells as previously described (Boylan, J., et al., Proc. Natl. Acad. Sci. USA 90:9601-9605 (1993); Clifford, J., et al., EMBO J. 15:4142-4155 (1996)).
(§3) RNA preparation, RT-PCR, and Southern blotting were performed as previously described (Bouillet, P., et al., Dev. Biol. 170:420-433 (1995); Roy, B., et al., Mol. Cell. Biol. 15:6481-6487 (1995)). The PCR primers and end-labeled oligonucleotide probes for collagen IVα1, laminin B1, α-fetoprotein (AFP), and 36B4, were described previously (Clifford, J., et al ., EMBO J. 15:4142-4155 (1996)). Transcript levels were quantified using a BAS 2000 bioimaging analyzer (Fuji Ltd., Tokyo, Japan), and were normalized to the corresponding 36B4 signals.

Assay [6] has as its system RARα−/− F9 cells. Nature of the assay: Apoptosis of F9 cells (Hoechst 33258 staining, FACS). The class given is cell-based, murine. Conditions: 6 d. Also on record: key: (−): no visible effect. As for the experimental part:
as §1

The subject of assay [7] is RARγ−/− F9 cells. Nature of the assay: Proliferation of F9 cells in monolayer culture (cell counting, [3H]thymidine incorporation, cell cycle FACS). The settings on record: 6 d. The class given is cell-based, murine. As for the experimental part:
(§4) Cells were plated in triplicate 3-cm culture wells (5×10^2 cells per well), and cell counting experiments were performed as previously described (Clifford, J., et al., EMBO J. 15:4142-4155 (1996)). [^3H]Thymidine incorporation assays were performed essentially as described (Clifford, J., et al., EMBO J. 15:4142-4155 (1996)), with the following modifications. […] The cell cycle profile of WT and mutant cells was determined as previously described (Clifford, J., et al. EMBO J. 15:4142-4155 (1996)).

Assay [8] has as its system RARα−/− F9 cells. The description is as above. The class given is cell-based, murine. Conditions: 6 d. The procedure: as §4
Assay [9] relates to WT F9 cells. Described as above. The class given is cell-based, murine. The settings on record: 6 d. The procedure: as §4
Assay [10] deals with RARα−/− F9 cells. Nature of the assay: Morphological differentiation of F9 cell aggregates into visceral endoderm (VE)-like cells (morphology, RT-PCR of markers). The class given is cell-based, murine. Further details: key to proportion of outer layer of cells displaying VE morphology: +++: more than 80%; ++: 50-80%; +: 10-50%; ±: not more than 10%; (−): no visible effect. Conditions: 10 d.
Excerpt: (§5) Similarly, after 10 d of treatment, >80% of the outer layer of RARα^−/− and RXRα^−/−/RARα^−/− cell aggregates differentiated into VE-like cells, which were indistinguishable from those of WT and RXRα^−/− cells (FIG. 23A, compare f with panels b and d; and Table 9). […] To exclude the possibility that this very poor differentiation of the RXRα^−/−/RARγ^−/− cells could be due to some clonal variation, rather than the presence of the RXRα-null mutation in the RARγ-null background, we expressed the RXRα cDNA in RXRα^−/−/RARγ^−/− cells.
as §2, §3

The subject of assay [11] is WT F9 cells. The assay is described as above. The class given is cell-based, murine. Also on record: key to proportion of outer layer of cells displaying VE morphology: +++: more than 80%; ++: 50-80%; +: 10-50%; ±: not more than 10%; (−): no visible effect. The settings on record: WT, 10 d.
Excerpt: as §5, §2, §3

Assay [12] concerns RXRα−/−/RARα−/− F9 cells. Nature of the assay: Apoptosis of F9 cells (Hoechst 33258 staining, FACS). The class given is cell-based, murine. Conditions: 100 nM, 6 d.
In assay [13] the test system is RXRα−/− F9 cells. Described as above. The class given is cell-based, murine. Conditions: 100 nM, 6 d.
In the next assay the target is mouse RXRγ (mouse) (UniProt P28705). Nature of the assay: cell-based or functional assay.
Chain of mouse RXRγ (mouse) (P28705 whole entry): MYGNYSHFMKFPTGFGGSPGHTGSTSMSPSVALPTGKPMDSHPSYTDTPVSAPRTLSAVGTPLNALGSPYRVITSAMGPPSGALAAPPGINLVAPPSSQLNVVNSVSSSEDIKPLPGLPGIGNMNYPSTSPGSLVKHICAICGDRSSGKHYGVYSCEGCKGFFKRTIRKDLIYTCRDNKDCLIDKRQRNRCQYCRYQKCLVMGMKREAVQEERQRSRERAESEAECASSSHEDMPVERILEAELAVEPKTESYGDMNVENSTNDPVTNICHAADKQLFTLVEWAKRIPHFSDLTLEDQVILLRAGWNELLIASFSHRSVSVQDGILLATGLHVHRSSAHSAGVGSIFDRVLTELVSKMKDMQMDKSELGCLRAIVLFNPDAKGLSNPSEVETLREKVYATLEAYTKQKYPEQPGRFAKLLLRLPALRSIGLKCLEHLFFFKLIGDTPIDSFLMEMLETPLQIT

Turning to `CC1(C)C(=O)C(C)(C)c2cc(C(=O)Nc3ccc(C(=O)O)cc3)ccc21` [RARα agonist], the “number of cells in percent relative to cells grown in 0.1% ethanol” value in the assay on RXRα−/−/RARγ−/− F9 cells (10 nM) is given as 124%; in the assay on RXRα−/−/RARγ−/− F9 cells (100 nM), 143%; in the assay with RXRα−/− F9 cells [1] (10 nM), 100%; in the assay with RXRα−/− F9 cells [1] (100 nM), 100%; in the assay on RXRα−/−/RARα−/− F9 cells [2] (10 nM) it was 100%; in the assay with RXRα−/−/RARα−/− F9 cells [2] (100 nM), 100%. Also, the “number of cells in percent relative to cells grown in 0.1% ethanol” value in the assay with RARγ−/− F9 cells [7] (10 nM), in the assay on RARγ−/− F9 cells [7] (100 nM), in the assay on RARα−/− F9 cells [8] (10 nM), with RARα−/− F9 cells [8] (100 nM), in the assay on WT F9 cells [9] (10 nM) and in the assay with WT F9 cells [9] (100 nM) was 100% each time. Also, the “proportion of apoptotic nuclei and subcellular fragments (Hoechst 33258)” value (shortened to “proportion … (Hoechst 33258)”) in the assay on RARγ−/− F9 cells [3] (100 nM), in the assay on WT F9 cells [4] (100 nM) and in the assay with RARα−/− F9 cells [6] (100 nM) was “(−)” each time. The “proportion of outer layer of cells displaying VE morphology” value with RARγ−/− F9 cells [5] (10 nM) is on record as “(−)”; in the assay with RARγ−/− F9 cells [5] (100 nM), “± (not more than 10%)”; in the assay on RARα−/− F9 cells [10] (100 nM), “(−)”; in the assay with WT F9 cells [11] (10 nM), “(−)”; in the assay with WT F9 cells [11] (100 nM), “(−)”.
Regarding `CC1(C)CC=C(c2ccccc2)c2cc(/C=C/c3ccc(C(=O)O)cc3)ccc21` [RARβ agonist], the “number of cells in percent relative to cells grown in 0.1% ethanol” value with RXRα−/−/RARγ−/− F9 cells (500 nM) worked out at 120%; in the assay with RXRα−/− F9 cells [1] (50 nM) it was 100%; in the assay with RXRα−/− F9 cells [1] (500 nM) it was 100%; in the assay on RXRα−/−/RARα−/− F9 cells [2] (500 nM), 100%; in the assay with RARγ−/− F9 cells [7] (50 nM), 100%; in the assay on RARγ−/− F9 cells [7] (500 nM), 100%. Also, the “number of cells in percent relative to cells grown in 0.1% ethanol” value in the assay with RARα−/− F9 cells [8] (500 nM), in the assay with WT F9 cells [9] (50 nM) and with WT F9 cells [9] (500 nM) was 100% each time. In addition, the “proportion … (Hoechst 33258)” value with RARγ−/− F9 cells [3] (500 nM), in the assay on WT F9 cells [4] (500 nM) and with RARα−/− F9 cells [6] (500 nM) was “(−)” in each case. Moreover, the “proportion of outer layer of cells displaying VE morphology” value in the assay with RARγ−/− F9 cells [5] (500 nM) was “± (not more than 10%)”; in the assay on RARα−/− F9 cells [10] (500 nM), “(−)”; in the assay with WT F9 cells [11] (500 nM), “(−)”.
As to `CC1(C)CCC(C)(C)c2cc(NC(=O)c3ccc(C(=O)O)cc3)ccc21` [panRAR agonist], the “proportion … (Hoechst 33258)” value in the assay with RXRα−/−/RARα−/− F9 cells [12] is listed as “±* (asterisks less than that in combination with 1 μM panRXR agonist)”; with RARγ−/− F9 cells [3] (100 nM) it was “± (<1%)”; with WT F9 cells [4] (100 nM), “+ (>1-10%)”; in the assay on RARα−/− F9 cells [6] (100 nM), “+ (>1-10%)”; in the assay with RXRα−/− F9 cells [13], “±* (asterisks less than that in combination with 1 μM panRXR agonist)”.
Consider `CC1(C)CCC(C)(C)c2cc(C3(c4ccc(C(=O)O)cc4)OCCO3)ccc21` [panRXR agonist], for which the “number of cells in percent relative to cells grown in 0.1% ethanol” value in the assay on RXRα−/−/RARγ−/− F9 cells (1 μM), in the assay with RXRα−/− F9 cells [1] (1 μM), in the assay with RXRα−/−/RARα−/− F9 cells [2] (1 μM), with RARγ−/− F9 cells [7] (1 μM), in the assay on RARα−/− F9 cells [8] (1 μM) and with WT F9 cells [9] (1 μM) was 100% in each case. Further, the “proportion … (Hoechst 33258)” value in the assay with RARγ−/− F9 cells [3] (1 μM), in the assay on WT F9 cells [4] (1 μM) and with RARα−/− F9 cells [6] (1 μM) was “(−)” in each case. Further, the “proportion of outer layer of cells displaying VE morphology” value with RARγ−/− F9 cells [5] (1 μM), with RARα−/− F9 cells [10] (1 μM) and with WT F9 cells [11] (1 μM) was “(−)” each time.
For the compound “mouse RARα (from UniProt P11416 1-462) (receptor)”, in the assay with mouse RXRγ (mouse), the CAT activity of the C1 reporter (D2R promoter) in COS-1 cells cotransfected with RARα and RXRγ, in the presence of t-RA and 9-cis-RA is 45 fold; the CAT activity of the C2 reporter in COS-1 cells coexpressing RARα/RXRγ, in the presence of t-RA and 9-cis-RA came out at 66 fold; the CAT activity of the C3 reporter (D2R RARE upstream of the TK promoter) in COS-1 cells cotransfected with RARα/RXRγ, in the presence of t-RA and 9-cis-RA is 11 fold.

The record behind these values is US6521814B1, “Use of ligands for treatment of diseases responsive to retinoids” (Institut National de la Santa et de la Recherche Medicale, priority 1997, dated 2003).
